Test results from a melting point compilation (Tetko et al.; mined from patent text by program, amines drawn as free bases though some values may be those of a salt).

SMILES	melting point [°C]
CC(=O)Nc1cc(C2=NNC(=O)NC2C)ccc1Cl (stereo not drawn)	251 to 253
O=C(Nc1ccc(F)cc1F)Nc1cnc2cc3c(cc2c1-c1ccccc1Cl)CCC3	247 to 248
COCCCCNC(=O)C(c1ccccc1)c1ccccc1	75.5 to 76.8
CCOC(=O)c1cn(NC=O)c2cc3c(cc2c1=O)OCO3	255 to 257
O=[N+]([O-])c1c(Cl)ccc(S(=O)(=O)Oc2ccccc2)c1Cl	91
O=C(Nc1ccc(C(=O)N2CCCC(=NO)c3ccccc32)cc1)c1cc(Cl)cc(Cl)c1	272 to 273
Cc1ccc(Cl)cc1-c1cc(F)cc2c1O[C@@H](CN)C2	148 to 150
CCOC(=O)c1[nH]c(=O)[nH]c(=O)c1[N+](=O)[O-]	259
OC1CSC(Oc2cccc(-c3cccs3)c2)C(O)C1O (stereo not drawn)	165 to 166
O=C(c1cc(-c2ccc(OCc3ccccc3)cc2)c(=O)n2ccc3ccsc3c12)N(CCN1CCOCC1)c1ccccc1	168 to 170
CCNc1ccc(S(=O)c2ccccc2)cc1N (stereo not drawn)	140 to 142
CSC1=NC(=O)C(=Cc2cc(C(C)(C)C)c(O)c(C(C)(C)C)c2)N1C	177 to 179
CCOC(=O)c1cnc2sccc2c1O	137 to 139
Cc1oc(-c2ccccc2)nc1COc1ccc(CON=C(CCCCCCC(=O)O)c2ccc(Cl)cc2)cc1	54 to 57
CCOC(=O)c1cc2ccc(C)cc2o1	35 to 42
C[C@@H](O)[C@H]1C(=O)N(CC(=O)OC(C)(C)C)[C@@H]1C(=O)OC(C)(C)C	79 to 81
NC(=O)NN=Cc1ccc(N(c2ccccc2)c2ccccc2)cc1	106 to 114
N#Cc1c(N)[nH]c2c1COc1ccccc1-2	216 to 217
CCOc1nn(-c2ccc(C(F)(F)F)cn2)cc1CCCOc1cccc(CC(=O)O)c1F	120 to 121
FS(F)(F)(F)(F)c1cc(Br)cc(S(F)(F)(F)(F)F)c1	65.9 to 66.4
Cc1c(CO)ncn1Cc1ccccc1	176 to 180
OC1CSC(Oc2ccc(-c3cccnc3Cl)nc2)C(O)C1O (stereo not drawn)	203
CN1CCC(OC2c3cccc(OCc4ccccc4)c3CCn3cc(-c4ccccc4)nc32)CC1 (stereo not drawn)	68
CC1(C)SCN(CCCCN2CCN(c3n[nH]c4cc(F)ccc34)CC2)C1=O	123 to 125
Cc1c(C2CCCC2)c(=O)oc2cc(OCc3nnn[nH]3)cc(OCc3nnn[nH]3)c12	248 to 252
Cc1cc(=O)c(Oc2ccc(F)cc2C)c(-c2ccc(S(C)(=O)=O)cc2)o1	146

SMILES	melting point [°C]
COc1ccc(N(C(C)=O)C2=NN(c3ccc([N+](=O)[O-])cc3)C(=O)C2Br)cc1 (stereo not drawn)	163 to 164
O=C1Nc2ccccc2C1=Cc1ccccc1	177 to 179
CCOC(=O)c1ncoc1-c1ccc([N+](=O)[O-])cc1Cl	140 to 141
CCC(OC(C)=O)c1ccc(Cl)c2nc3n(c12)CCCN3c1ncc(Cl)cc1Cl (stereo not drawn)	157 to 159
CCn1c(=O)c2c(nc(/C=C/c3cccc(O)c3)n2C)n(CC)c1=O	250 to 251
CC(=Cc1ccc(C(C)C)cc1)c1ccc2c(c1)C(C)(C)CCC2(C)C	86 to 87
COc1ccc(-c2coc(C(N)=O)cc2=O)cc1	262 to 263
CC(=O)NC[C@H]1CN(c2ccc(N3CCC(=C(C#N)CCO)CC3)c(F)c2)C(=O)O1	192 to 194
COC(=O)c1ccc2oc3c(c(=O)c2c1)CCCC3=Cc1ccccc1	168 to 170
CCN1C(=O)C(C(=O)Nc2ccc(Cl)cc2Oc2ccc(Cl)cc2)C(=O)N(C)C1=S (stereo not drawn)	250 to 251
COc1cc(CO)ccc1OCc1nc(-c2cccnc2)oc1C	117 to 118
NC(=O)CCC(=O)NCCS	173
CC(C)(C)OC(=O)C1=Cc2cc(OCc3ccccc3)ccc2OC1	64 to 67
CCOC(=O)c1cc(C)c2c(c1)CC(=O)N2	238 to 241
C=CC(C)(C)C(O)(COc1ccc(-c2ccccc2)cc1)Cn1cnnc1 (stereo not drawn)	171 to 173
CNC(=NC#N)NCCCCCc1csc(NC(=N)N)n1	109 to 113
COc1cc2c(Oc3cccc4[nH]ccc34)ncnc2cc1OCCCN1CCCCC1	80 to 82
Cc1nnc(OC[C@H]2CN(c3ccc(C4=CCOCC4)c(F)c3)C(=O)O2)o1	146 to 147
CCC(C)(Oc1ccc(F)cc1F)C(=O)Nc1nc(CC(=O)O)cs1 (stereo not drawn)	148 to 149
CC1(C)CC(=C(c2ccc(O)cc2)c2ccc(-c3ccccc3CO)cc2)CC(C)(C)C1	171 to 172
COc1cc(CCCC2OC(=O)NC2=O)ccc1OCc1coc(/C=C/c2ccccc2)n1 (stereo not drawn)	178 to 179
O=C1CCC(N2Cc3c(OCc4ccc(CN5CCc6cc(F)ccc6C5)cc4)cccc3C2=O)C(=O)N1 (stereo not drawn)	123 to 125
O=Cc1ccc(O)c(O)c1Cl	193 to 195
C=C(C)C(=O)OCCCOc1ccc(-c2cc(OC(=O)C(=C)C)cc(-c3ccc(OCCOC(=O)C(=C)C)cc3)c2)cc1F	70
CCOC(=O)C(Cc1ccc(C(F)(F)F)c(F)c1)C(=O)c1ccc(F)cc1 (stereo not drawn)	56 to 57
COc1ccc(C2(C#Cc3ccc(C(=O)O)cc3)CCCC(=O)C2)cc1OC1CCCC1 (racemic)	102 to 104

SMILES	melting point [°C]
CSc1ccc(C(=CN(C)C)C(C)=O)cc1	89 to 91
CCCCCCCCCCCCc1c([N+](=O)[O-])ncn1C	56 to 59
CN1CCC(C(=O)Nc2cccc(-c3ccnc4c(C(=O)c5cccs5)cnn34)c2)CC1	236
COc1cc(OC)c(-c2cc3ccccc3s2)cc1C=CC(=O)c1cc(OC)c(OC)c(OC)c1	194 to 196
CCCCNCCOc1ccc(NC(=O)c2c[nH]c3c2C(=O)CCC3)cc1F	290 to 292
N#Cc1ccc2c(C#N)c3cc(C#N)ccc3c(C#N)c2c1	345
COc1ccc2c(c1)Sc1c(cc(OC)c(OC(=O)c3ccccc3)c1Br)N2	202 to 203
CCCc1c(OCC(O)COc2cc(NC(=O)c3nnn[nH]3)c(C)cc2Br)ccc(C(C)=O)c1O (stereo not drawn)	155 to 158
O=C1Cn2c(nc3ccccc3c2=O)-c2ccccc2N1	318 to 319
CCc1nn(C2CCCC2)c2cc(C(=O)Nc3ccc(C(=O)NOCc4ccccc4)cc3)ccc12	194 to 198
COCCOc1c(S(C)(=O)=O)ccc(C(=O)c2cnn(C)c2O)c1C	112 to 114
Cc1ccc(S(=O)(=O)N(c2ccc(Cl)cc2C(N)=S)C(C)C)cc1	189 to 191
CC1(O)CC(=O)OC(CCc2ccccc2OCc2ccccc2)C1Br (stereo not drawn)	122 to 125
c1ccc(-c2cc(-n3ccc4ccccc43)c3ccccc3n2)cc1	100 to 102
CC(C)C[C@H](N)[C@@H](O)CCSCCc1ccccc1	95 to 96
CN1CCCCCC1=NC(=O)Nc1c(Cl)cccc1Cl	143 to 144
Nc1cc(Br)nc(Cl)c1OC(F)F	138 to 140
Cc1ncn(-c2ccc(N3C[C@H](CO)OC3=O)cc2F)n1	190 to 192
COC(=O)NC[C@H]1CN(c2ccc(-c3nc(Cn4cccn4)cs3)c(F)c2)C(=O)O1	142 to 144
O=C1N(c2cc(Cl)cc(Cl)c2)C(=O)C2(Cc3ccc(-c4nnn[nH]4)cc3)CCCN12 (stereo not drawn)	195
C=CCC(C)(C)CNc1cc(N2CCNCC2)nc(NCC(C)(C)CC=C)n1	72 to 84
O=C1Nc2ccccc2CCC1(Cl)Cl	185 to 187
CCNC(=O)N(C)c1ccc(C(O)(C(F)(F)Cl)C(F)(F)Cl)cc1	155 to 157
O=C1NC(=O)C(c2ccc(O)cc2)N1 (stereo not drawn)	262
C(=NC1CCCCC1)c1cccc(Oc2ccccc2)c1	72 to 74
CC1(C)Cc2c(c(N3CCCC3)nc3sc4c(NCc5ccccn5)ncnc4c23)CO1	249 to 251

SMILES	melting point [°C]
O=C1CCc2ccc(OCCCCN3CCCN(c4cccc(Cl)c4Cl)CC3)cc2N1	88 to 89
N#Cc1c(N2CCCCC2)cc(-c2ccc3ccccc3c2)c2c1-c1ccccc1C2	136 to 138
COc1cc2c(c3c1OC(C)(C)C3)C(c1cccc(NC(=O)NCCCl)c1)=NC(C)(C)C2	147 to 150
N#Cc1sc2ccccc2c1Cl	124 to 125
C=C(c1ccccc1)c1cc2cc(OC)ccc2[nH]1	119 to 121
Cc1onc(-c2c(Cl)cccc2Cl)c1CSc1ccc(OCC(=O)O)c2c1CCC2	151 to 152
Cc1cc(-c2cc3ncccc3c(=O)[nH]2)cc(C)c1O	> 350
Oc1cc(-c2ccccc2)nc2ccc(Cl)cc12	> 350
CCCCC(CNc1ncc(OC)c(C)n1)c1ccccc1 (stereo not drawn)	39 to 40
Cc1c2c(nc3ccccc13)CCN(C(=N)N)CC2	140
CC(C)(C)OC(=O)N1CCC(c2ccc(N3C[C@@H](CCO)OC3=O)cc2F)CC1	120 to 122
NNC1=Nc2ccc(Cl)cc2N(c2ccccc2)C(=O)C1	91 to 93
Cc1ccc(C(=O)Nc2cn(C3CCCCO3)nc2C(=O)NCCC#N)cn1 (stereo not drawn)	118 to 120
CC(C)C(C)(C(N)=O)N1C(=O)C=CC1=O (stereo not drawn)	138 to 140
Cc1cc2c(c3c1C(c1ccc(C(C)C)cc1)CO3)CCCC2 (stereo not drawn)	54 to 55
Cn1ncc2cc(/C=C/c3ccc(O)cc3)ccc2c1=O	223 to 225
COc1cc(Nc2nc(O)c3c(n2)C(c2ccccc2)CN(C)C3)ccc1-n1cnc(C)c1 (stereo not drawn)	152 to 155
Cn1c(=O)cc(-c2cccc(O)c2)c2cccnc21	260 to 261
CC(C)(/C=C/I)C(=O)Nc1ccc(Cl)cc1	145 to 146
COc1cccc(-c2nc3n(n2)CCc2ccccc2-3)c1	94 to 96
CC(C)(C)Nc1c(NCc2ccc(F)cc2C(F)(F)F)c(=O)c1=O	192 to 194
CC(C)(C)NC(=O)C1CC(C)(C)NC(C)(C)C1=NO (stereo not drawn)	136 to 139
COc1ccc2c(c1)CC(=O)NC2=O	212 to 215
Cc1cccc(C(=O)CC(=O)C2CCCC2)c1O	74 to 75
Cn1cc(Br)cc(Nc2ccncn2)c1=O	217 to 219
